For data set [1] the following is noted: DPPH assay, 100 mg/L (Hu et al., 2003); cited from earlier work.
In data set [2] the test system is HaCaT cells. Description: UVA&UVB induced ROS assay in HaCaT cell. It is filed as cell-based, human. The conditions noted are these: positive control, 40 μg/mL. On the procedure: HaCaT cells (Human immortal keratinocyte cells) were seeded at a density of 8,000 cells/well in 96-well tissue culture plates and treated for 24 hours with test substance at 25 μg/mL. […] DCFH-DA (a fluorescent probe) was added to cells to detect ROS production and incubated at 37° C. for 25 minutes. After exposure to UV irradiation under the solar simulator (Sol-UV-6 Solar Simulator) with ultraviolet filter for 10 minutes, the fluorescence value was measured at 488 nm (excitation) and 525 nm (emission) by Multimode Reader. […] Organic extracts (OE) were tested at 50 μg/mL, while aqueous extracts were tested at 100 μg/mL. Fractions or pure compounds were tested at 25 μg/mL in this assay.

Data set [3] concerns acute ear edema induced by tetradecanoyl phorbol acetate (TPA). The conditions noted are these: acute ear edema induced by TPA (Cuellar et al 1997); cited from earlier work.
A further data set concerns the target phospholipase A2. Conditions: phospholipase A2 from snake venom (Cuéllar et al 1996); cited from earlier work.
A further data set concerns HMGB1. Description: Inhibition of hyperoxia-induced HMGB1 release from macrophages (ELISA). It is filed as cell-based, mouse. Conditions: RAW 264.7 cells, 95% O2 24 hours, test substance 25 μg/mL, ELISA of supernatant. On the procedure:
Macrophages cultured under hyperoxic conditions experience oxidative stress, causing them to secrete HMGB1 to the cell culture media. To determine the efficacy of the Aloe-based composition and its components in reducing the accumulation of extracellular HMGB1 of cultured macrophages, RAW 264.7 cells were exposed for 24 hours to either 21% O2 (room air (RA)), or 95% O2 in the presence or absence of test substance at 25 μg/mL concentration. HMGB1 levels in cell culture supernatants were determined by ELISA at a single concentration of test substance in duplicate. The data are expressed as mean±SEM of one experiment assayed in duplicate. *p<0.05, **p<0.01, ****p<0.0001 compared to macrophages treated under hyperoxia with vehicle only. Control cells were treated with Sodium Salicylate (SS) as a positive control, which attenuates hyperoxia-compromised macrophage function and oxidative-stress-induced HMGB 1 release.
On the technique in general: An ELISA detects its analyte on a solid surface through an enzyme-linked reagent.

The test system of data set [4] is RAW 264.7 cells. Description: MTT assay in cultured RAW 264.7 cells under hyperoxia. The format is cell-based, mouse. Conditions: RAW 264.7, 95% O2 24 hours. On the procedure: Cell viability was determined by MTT assay.
For data set [5], the system named is RAW 264.7 cells. In words: Hyperoxia-induced dysfunctional macrophage phagocytosis assay. It is filed as cell-based, mouse. Conditions: RAW 264.7, 95% O2 24 hours, beads per cell as percent increase.
Protocol: RAW 264.7 cells either remained at room air (21% O2) or were exposed to 95% O2 for 24 hours in the presence of test substance. Cells were then incubated with FITC-labeled latex mini-beads for 1 hour and stained with phalloidin and DAPI to visualize the actin cytoskeleton and nuclei, respectively. For quantification of phagocytic activity, at least 200 cells per group were counted and the numbers of beads per cell were represented as a percent increase compared to the 21% 02 (0 μg/ml) control group. Each value represents the mean±SEM of 3 independent experiments for each group, in duplicate. *, P<0.05 compared to the 21% O2 (0 μg/ml) control group.
The test system of data set [6] is HaCaT cells. In words: Cytotoxicity (CCK viability) in HaCaT cells. Conditions: 25 μg/mL. The format is cell-based, human. The method, then:
HaCaT cells (Human immortal keratinocyte cells) were seeded at a density of 8,000 cells/well in 96-well tissue culture plates and treated for 24 hours with test substance at 25 μg/mL. Cytotoxicity was evaluated to remove false positives (CCK >80% viability). DCFH-DA (a fluorescent probe) was added to cells to detect ROS production and incubated at 37° C. for 25 minutes. After exposure to UV irradiation under the solar simulator (Sol-UV-6 Solar Simulator) with ultraviolet filter for 10 minutes, the fluorescence value was measured at 488 nm (excitation) and 525 nm (emission) by Multimode Reader. Vitamin C was used as positive control treated at 40 μg/mL with 43% reduction of ROS production. At 25 μg/mL, Rosmarinic acid decreased ROS generation by 24%, compared to the level of UV exposed HaCaT cells. Organic extracts (OE) were tested at 50 μg/mL, while aqueous extracts were tested at 100 μg/mL. Fractions or pure compounds were tested at 25 μg/mL in this assay.

For data set [7], the system named is HSF cells (Human fibroblasts). Description: DNA damage of human fibroblasts induced by hydrogen peroxide (γH2AX). The format is cell-based. The conditions noted are these: γH2AX staining, H2O2 1 mM 4 h. On the procedure:
HSF cells (Human fibroblasts) were seeded in 96-well tissue culture plates and incubated at 37° C. and in 5% CO2 and 95% air with test substances. Treated HSF cells were subjected to DNA damage by incubating with H2O2 at a concentration of 1 mM for 4 h, then immunostained for γH2AX, a phosphorylated histone that is a marker of DNA double strand breaks. DAPI was used to stain the cell nucleus. Pictures taken by Image Xpress and analyzed with Meta Xpress. Catechin (100 μg/ml) was used as positive control with 70% reduction of DNA damage, as assessed by quantification of γH2AX staining. […]. Rosmarinic acid reduced DNA damage by 24% at 25 μg/mL.

Data set [8] concerns Pseudomonas aeruginosa (PA) infected hyperoxic mice. In words: Hyperoxia-induced mortality in Pseudomonas aeruginosa (PA)-infected mice. It is filed as in vivo, mouse.
In another data set the test system is Pseudomonas aeruginosa. Description: Bacterial clearance in the airways in hyperoxic and PA infected mice. The conditions noted are these: 24 hours after infection. It is filed as in vivo, mouse.
For data set [9], the system named is hyperoxic and PA infected mice. In words: Oxidative stress-exacerbated acute lung injury induced by bacterial infection (BAL total protein, biomarkers, histology). The format is in vivo, mouse. Conditions: hyperoxia + PA infected mice, Resveratrol 50 mg/kg.

pIC50: −log10 of the molar value.

As for `Cc1c(C)c2c(c(C)c1O)CC[C@@](C)(CCC[C@H](C)CCC[C@H](C)CCCC(C)C)O2` [a-tocopherol], the radical scavenging activity in data set [1] is 65.20%.

For the molecule `O=C1O[C@H]([C@@H](O)CO)C(O)=C1O` [Vitamin C], the “reduction of ROS production” value in the data set with HaCaT cells [2] turned out to be 43%.

In the case of hydrotumulosic acid, the IC50 in [3] is on record as 0.68 nmol/ear.

The pIC50 is the IC50 on a negative log10 scale, so that one unit is a factor of ten. Regarding `C=C(CC[C@@H](C(=O)O)[C@H]1[C@H](O)C[C@@]2(C)C3=CC[C@H]4C(C)(C)[C@@H](O)CC[C@]4(C)C3=CC[C@]12C)C(C)C` [dehydrotumulosic acid], the negative logarithm of the IC50 (pIC50) at phospholipase A2 is 3.07.

As usually defined, the inhibition is the drop in the measured response relative to a control, in per cent. High values mean a strong effect, low ones a weak effect. On to `O=C(/C=C/c1ccc(O)c(O)c1)O[C@H](Cc1ccc(O)c(O)c1)C(=O)O` [Rosmarinic acid], for which, in the data set with HMGB1 (Mus musculus, RAW264.7), testing at 25 µg/mL gave an inhibition of 73%. Also, the “MTT (% reduction)” value in the data set with RAW 264.7 cells [4] (12 μg/mL) turned out to be 5.63%; in the data set with RAW 264.7 cells [4] (25 μg/mL), 13.47%; with RAW 264.7 cells [4] (50 μg/mL) it was 20.03%; in the data set with RAW 264.7 cells [4] (100 μg/mL), 20.53%. Besides, the Phagocytosis was 51.00% in the data set with RAW 264.7 cells [5] (12 μg/mL) and 74.35% in the data set with RAW 264.7 cells [5] (25 μg/mL). In the data set on HaCaT cells [6], the “Viability (%)” value was found to be 57%. In addition, the “reduction of DNA damage” value in data set [7] (25 μg/mL) was 24%.

With `CC(=O)Cc1cc(=O)c2c(C)cc(O)c([C@@H]3O[C@H](CO)[C@@H](O)[C@H](O)[C@H]3O)c2o1` [Aloesin], in the data set on HMGB1, the HMGB1 inhibition was found to be 52.47.

Consider Catechin, for which, in data set [7] (100 μg/ml), the “reduction of DNA damage” value was determined as 70%.

`Oc1ccc(C=Cc2cc(O)cc(O)c2)cc1` [resveratrol] returned a mortality rate in data set [8] (7 days prophylactic treatment, hyperoxia 2 days, PA inoculated, 24 hours post-inoculation) of 27%. The Dead animals in [8] (RES 50 mg/kg, hyperoxia + PA inoculation, 11 total animals) came to 3. In addition, the Mortality % in data set [8] (RES 50 mg/kg, hyperoxia + PA inoculation, 24 hours post-inoculation) stood at 27.27%. Besides, in the data set on Pseudomonas aeruginosa (RES 50 mg/kg, hyperoxic and PA infected mice), the “Bacterial load in the airways, ×10^5 CFU/mL (Mean ± SE)” value was 2.4 ± 0.7 ×10^5 CFU/mL. Moreover, in the data set on Pseudomonas aeruginosa (UP360 500 mg/kg, Resveratrol 50 mg/kg oral, >99% O2 48 hours, PA intranasal), the “bacterial load in the airways vs hyperoxia + vehicle (O2)” value is “airway bacterial load was significantly lower”. Moreover, the lung injury result in data set [9] is recorded as “significantly reduce lung injury”.

With `Cc1cc(C(C)(C)C)c(O)c(C(C)(C)C)c1` [butylated hydroxytoluene], the radical scavenging activity in [1] is 70.52%.
